Measured values: the NIST ThermoML archive (doi:10.1016/j.tca.2006.05.019)

Conditions: 101.33 kPa, Crystal, Vacuum adiabatic calorimetry

O=P([O-])([O-])[O-].[Lu+3] [lutetium phosphate]
Conditions | molar entropy [J/K/mol]
6 K | 0.012
8 K | 0.0284
10 K | 0.0553
12 K | 0.095
14 K | 0.152
16 K | 0.226
18 K | 0.322
20 K | 0.441
25 K | 0.858
30 K | 1.47
35 K | 2.28
40 K | 3.29
45 K | 4.48
50 K | 5.82
55 K | 7.3
60 K | 8.89
65 K | 10.58
70 K | 12.33
75 K | 14.15
80 K | 16.02
85 K | 17.93
90 K | 19.88
95 K | 21.85
100 K | 23.84
110 K | 27.89
120 K | 31.97
130 K | 36.07
140 K | 40.18
150 K | 44.27
160 K | 48.34
170 K | 52.38
180 K | 56.34
190 K | 60.33
200 K | 64.24
210 K | 68.09
220 K | 71.89
230 K | 75.64
240 K | 79.34
250 K | 82.98
260 K | 86.56
270 K | 90.09
280 K | 93.57
290 K | 96.99
300 K | 100.4
310 K | 103.7
320 K | 106.9
